From patent US20140255518A1, “Treatment and Prevention of Gastrointestinal Syndrome” (THOMAS JEFFERSON UNIVERSITY HOSPITALS, INC., priority 2011, published 2014)
Like-named read-outs stand apart in the source and are kept apart here. No end group written: not given here.

Legend:
[1] = biological target: ST receptors / guanylate cyclase (Homo sapiens, UniProt P25092); settings: compared with native ST; cited from earlier work
[2] = system: HCT116P53−/− cells (P53 null); assay: IR-induced cell death after cGMP preconditioning, HCT116 P53 null; type: cell-based, human; settings: HCT116P53−/− cells (P53 null) preconditioned with cGMP; FIG. 3 (B)
Description: (§1) Experiments were performed to show the requirement of GCC activation in the protection of small intestine and colon cells from apoptosis and genotoxic induced cell death. The role of activation of GCC and of the presence of p53 was also evaluated. Test on cancer cells were performed to compare the protection by cGMP of colon cancer cells from cell death in compared to cGMP's potentiation of cell death in other cancers.

human colon cells = assay: Cell death after irinotecan (CPT11) challenge, human colon cells; type: cell-based; settings: irinotecan (CPT11, 100 μM)
Description: as §1

[3] = system: human breast cancer cells; assay: CPT11-induced cell death after cGMP preconditioning, breast cancer cells; type: cell-based; settings: cGMP precondition
Description: as §1

[4] = system: human prostate cancer cells; assay: CPT11-induced cell death after cGMP preconditioning, prostate cancer cells; type: cell-based; settings: cGMP precondition
Description: as §1

[5] = system: HCT116 cells (P53 wildtype); assay: IR-induced cell death after cGMP preconditioning, HCT116 (P53 wildtype); type: cell-based, human; settings: HCT116 cells (P53 wildtype) preconditioned with cGMP; FIG. 3 (A)
Description: as §1

human liver cancer cells = assay: CPT11-induced cell death after cGMP preconditioning, liver cancer cells; type: cell-based; settings: cGMP precondition
Description: as §1

HCT116 cells = assay: CPT11-induced cell death after cGMP preconditioning, HCT116 cells; type: cell-based, human; settings: HCT116 cells preconditioned with cGMP
Description: as §1

[6] = system: irradiated intestinal tissue; settings: cited from earlier work

Chain of ST receptors / guanylate cyclase (P25092 24-1073): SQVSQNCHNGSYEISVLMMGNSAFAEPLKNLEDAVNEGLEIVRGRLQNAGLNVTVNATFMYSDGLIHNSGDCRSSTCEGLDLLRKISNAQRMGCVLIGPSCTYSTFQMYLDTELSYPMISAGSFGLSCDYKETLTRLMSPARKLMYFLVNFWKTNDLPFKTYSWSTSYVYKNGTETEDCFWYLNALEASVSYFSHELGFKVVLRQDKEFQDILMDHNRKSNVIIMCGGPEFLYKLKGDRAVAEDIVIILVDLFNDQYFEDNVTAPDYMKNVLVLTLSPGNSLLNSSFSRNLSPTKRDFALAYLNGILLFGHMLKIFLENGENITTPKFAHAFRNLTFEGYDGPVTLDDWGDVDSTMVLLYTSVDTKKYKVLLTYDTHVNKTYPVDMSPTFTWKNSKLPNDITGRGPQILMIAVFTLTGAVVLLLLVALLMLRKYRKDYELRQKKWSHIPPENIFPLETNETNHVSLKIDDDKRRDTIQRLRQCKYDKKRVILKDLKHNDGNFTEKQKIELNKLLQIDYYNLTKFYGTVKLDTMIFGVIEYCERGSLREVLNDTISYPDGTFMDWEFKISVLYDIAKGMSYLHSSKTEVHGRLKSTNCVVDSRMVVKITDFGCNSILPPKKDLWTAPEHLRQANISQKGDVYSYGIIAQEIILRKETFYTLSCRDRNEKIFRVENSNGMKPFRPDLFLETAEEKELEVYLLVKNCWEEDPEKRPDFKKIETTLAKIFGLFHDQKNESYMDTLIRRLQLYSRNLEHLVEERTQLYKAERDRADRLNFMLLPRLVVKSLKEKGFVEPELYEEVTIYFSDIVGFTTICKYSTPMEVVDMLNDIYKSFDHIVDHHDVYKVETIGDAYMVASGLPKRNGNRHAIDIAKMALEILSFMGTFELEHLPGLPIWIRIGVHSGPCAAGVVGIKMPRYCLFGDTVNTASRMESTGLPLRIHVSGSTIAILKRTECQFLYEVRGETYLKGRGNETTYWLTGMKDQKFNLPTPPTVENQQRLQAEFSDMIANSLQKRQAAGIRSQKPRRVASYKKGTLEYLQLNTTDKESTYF

Guanylin: 15 amino acid peptide from mammalian intestine, about 50% sequence homology to ST; native GCC agonist (SEQ ID NO:6, 54) (PGTCEICAYAACTGC; ends and bridges not checked; cysteine pairing not given here; UniProt Q02747 101-115, looked up)
binding to ST receptors and activation of guanylate cyclase, level relative to native ST [1]: 10- to 100 fold less than native ST

Nc1nc2c(ncn2[C@@H]2O[C@@H]3COP(=O)(O)O[C@H]3[C@H]2O)c(=O)[nH]1 [cGMP, cyclic GMP]
protection from IR-induced cell death [2]: protection by cGMP preconditioning did not occur | cell death in response to irinotecan challenge (human colon cells): protected cell death | cell death induced by CPT11 [3]: promoted cell death | cell death induced by CPT11 [4]: promoted cell death | IR-induced cell death [5]: resisted IR-induced cell death | cell death induced by CPT11 (human liver cancer cells): promoted cell death | CPT11-induced cell death (HCT116 cells): resisted CPT11-induced cell death | P53 dependence of protection from CPT11-induced cell death (HCT116 cells): protection was P53 dependent | level of apoptosis in irradiated intestinal tissue ([6]; mice lacking genes encoding GCC or uroguanylin, cGMP supplementation (cGMP analog injected)): ameriolated the level of apoptosis | level of apoptosis in irradiated intestinal tissue ([6]; wild type mice, cGMP supplementation): not in wild type mice
